Results reported in patent US20070248646A1, “Use of azurocidin inhibitors in prevention and treatment of ocular vascular leakage” (priority 2006, published 2007).

Columns and labels:
[1] = test system: VEGF-induced blood retinal barrier breakdown; experiment: VEGF-induced blood retinal barrier breakdown (Evans Blue); assay type: in vivo, Brown Norway rats
Protocol: (§1) This study employed Brown Norway rats, AZ (1 μg, 10 μg, 20 μg), PBS, aprotinin, VEGF164, and polyclonal anti-AZ antibody (1 μg). Briefly, Brown Norway rats received intravitreal injections of AZ (1 μg, 10 μg and 20 μg) in one eye and PBS in the contralateral eye. BRB breakdown was quantified using the Evans Blue (EB) technique at 1 hour, 3 hours, and 24 hours after intravitreal injection of AZ or PBS. To assess whether AZ induced retinal leukostasis, firm leukocyte adhesion was quantified at 3 hours and 24 hours post AZ injection (10 μg) using the ex vivo conconavalin leukostasis assay. To block AZ, rats were treated with a single intravenous injection of aprotinin (30,000KIU), prior to the intravitreal injections. To investigate whether AZ was involved in VEGF-induced BRB breakdown, rats received intravitreal injections of 50 ng recombinant mouse VEGF164 in one eye and PBS in the other eye and were treated intravenously with aprotinin (50,000KIU every eight hours) or polyclonal anti-AZ antibody (1 μg). BRB breakdown and retinal leukostasis were quantified 24 hours after VEGF injection.
Rats received intravitreous injections of 5 μl of sterile phosphate-buffered saline (PBS) containing 50 ng VEGF164 (R&D Systems, Minneapolis, Minn.) in one eye and 5 μl of sterile phosphate-buffered saline (PBS) in the contralateral eye. The retinas were analyzed for leakage 24 hours after VEGF injection.
In a second group, the rats were additionally treated intravenously with aprotinin (Trasylol®, Bayer Pharmaceuticals). 50,000KIU of aprotinin (5 ml of Trasylol®) was administered intravenously through the tail vein 1 hour before, as well as 8 hours and 16 hours after, the intravitreal injection of VEGF. The retinas were analyzed 24 hours after VEGF administration.
In a third group, rats were treated with intravitreous injections of 1 μg of goat anti-human azurocidin polyclonal antibody (5 μl of a 200 μg/ml antibody solution, Santa Cruz biotechnology) or control goat isotype IgG (R&D system) in the VEGF injected eye 6 hours after VEGF administration.
Retinal vascular permeability was quantified as previously described (Qaum et al. (2002) supra, Xu et al. (2001) INVEST. OPHTHALMOL. VIS. SCI. 42; 789-94). After the animals were deeply anesthetized, Evans blue dye (Sigma) dissolved in normal saline (30 mg/ml) was injected through the tail vein over 10 seconds at a dosage of 45 mg/kg. Blood samples were obtained from the left ventricle, just before perfusion at 2 hours, to obtain the time-average Evans blue dye plasma concentration. These blood samples were centrifuged at 12,000 rpm for 15 minutes and diluted to 1/10,000th of their initial concentration in formamide (Sigma). The background-subtracted absorbance was determined by measuring each sample at 620 nm (the absorbance maximum for Evans blue dye in formamide) and 740 nm (the absorbance minimum) with a spectrophotometer. The concentration of dye in the plasma was calculated from a standard curve of Evans blue dye in formamide. After the dye had circulated for 2 hours, the chest cavity was opened, and the rats were perfused through the left ventricle with 1% paraformaldehyde in citrate buffer (0.05 M, pH 3.5) at a physiological pressure of 120 mm Hg. The retinas were then carefully dissected under an operating microscope. After measurement of the retinal weight, Evans blue dye was extracted by incubating each retina in 0.180 ml of formamide for 18 hours at 70° C. The extract was ultracentrifuged at a speed of 14,000 rpm for 60 minutes at 25° C. Sixty microliters of the supernatant was used for spectrophotometric measurement at 620 nm and 740 nm. The background-subtracted absorbance was determined by measuring each sample at 620 nm (the absorbance maximum for Evans blue dye in formamide) and 740 nm (the absorbance minimum). The concentration of dye in the extracts was calculated from a standard curve of Evans blue dye in formamide. […]

[2] = test system: VEGF-induced retinal leukostasis; experiment: Concanavalin A ex vivo retinal leukostasis quantification, VEGF-induced; assay type: in vivo, Brown Norway rats
Protocol: as §1
Deep anesthesia was induced with xylazine and ketamine as above. The chest cavity was carefully opened and the left ventricle was entered with a 14-gauge perfusion cannula fixed to a vessel clamp; care was taken to avoid ventricular obstruction. The right atrium was opened with a 12-gauge needle to achieve outflow. With the heart providing the motive force, 250 ml/kg PBS (roughly 30 ml of PBS quickly) was perfused to clear erythrocytes and non-sticking leukocytes, followed by perfusion with FITC-coupled Concanavalin A lectin (20 μg/ml in PBS, pH 7.4, total concentration 5 mg/kg) (Vector Labs, Burlingame, Calif.). The latter stained adherent leukocytes and the vascular endothelium. Lectin staining was followed by PBS perfusion (30 ml quickly).
The retinas were flat-mounted in a water-based fluorescence-anti-fading medium (Southern Biotechnology, Birmingham, Ala.) and imaged via fluorescence microscopy (Leica upright microscope, Hamamatsu digital high sensitivity camera, openlab imaging software). The total number of adherent leukocytes per retina was counted in a masked fashion.

In the case of aprotinin, the “BRB breakdown as percentage of the value in control eyes” value ([1]; 24 hours after intravitreal 50 ng VEGF) is reported as 110%±21, the “Evans Blue retinal leakage in VEGF-injected eye” value ([1]; 24 hours after intravitreal 50 ng VEGF, PBS eye 9.6±1.4 (VEGF alone), 5.4±1.4 (with aprotinin)) is reported as 6.2±1.5 μl plasma/g retina/h and the “fold increase in retinal vascular leakage compared to the PBS injected eye” value ([1]; 24 hours after intravitreal 50 ng VEGF, aprotinin i.v. 50,000KIU every eight hours, antibody 1 μg intravitreal 6 hours after VEGF) is reported as 1.1±0.21 fold. For the same substance, the “suppression of VEGF-induced blood retinal barrier breakdown” value ([1]; 24 hours after intravitreal 50 ng VEGF, aprotinin i.v., antibody intravitreal 6 hours after VEGF) was 95%, the “basal levels of retinal Evans Blue leakage” value ([1]; PBS-injected eye, i.v. aprotinin) was “did not reduce the basal levels of retinal Evans Blue leakage” and the “leukocyte adhesion as a percentage of leukocyte adhesion in the contralateral PBS-injected eye” value ([2]; 24 hours after 50 ng VEGF, aprotinin 50,000 KIU i.v. 1 hour before, 8 and 16 hours after) was 252%. For the same substance, the “leukocyte adhesion, VEGF-injected vs VEGF- and aprotinin-treated eyes” value ([2]; P>0.05) was “did not differ significantly”.
